Experimental data: US12692238B2, “Substituted pyridazinone herbicides” (FMC CORPORATION, priority 2020, dated 2026)

How the values were obtained:
Type in all cases: in vivo
[1] = test system: blackgrass (Alopecurus myosuroides); experiment: Test A preemergence, blackgrass; details: 0 to 100 scale, 10 days
Source text: (§1) Seeds of plant species selected from barnyardgrass (Echinochloa crus-galli), blackgrass (Alopecurus myosuroides), corn (Zea mays), foxtail, giant (giant foxtail, Setaria faberi), foxtail, green (green foxtail, Setaria viridis), goosegrass (Eleusine indica), kochia (Bassia scoparia), oat, wild (wild oat, Avena fatua), palmer amaranth (pigweed, palmer, Amaranthus palmeri), redroot pigweed (Amaranthus retroflexus), ragweed (common ragweed, Ambrosia artemisiifolia), ryegrass, Italian (Italian ryegrass, Lolium multiflorum), and soybean (Glycine max) were planted into a blend of loam soil and sand and treated preemergence with a directed soil spray using test chemicals formulated in a non-phytotoxic solvent mixture which included a surfactant.
(§2) At the same time, plants selected from these crop and weed species and also wheat (Triticum aestivum), galium (catchweed bedstraw, Galium aparine) and horseweed (Erigeron canadensis) were planted in pots containing the same blend of loam soil and sand and treated with postemergence applications of test chemicals formulated in the same manner. Plants ranged in height from 2 to 10 cm and were in the one- to two-leaf stage for the postemergence treatment. Treated plants and untreated controls were maintained in a greenhouse for 10 days, after which time all treated plants were compared to untreated controls and visually evaluated for injury. Plant response ratings, summarized in Table A, are based on a 0 to 100 scale where 0 is no effect and 100 is complete control. A dash (-) response means no test result.

[2] = test system: corn (Zea mays); experiment: Test A preemergence, corn; details: 0 to 100 scale, 10 days
Source text: as §1, §2

[3] = test system: foxtail, giant (giant foxtail, Setaria faberi); experiment: Test A preemergence, foxtail, giant; details: 0 to 100 scale, 10 days
Summary of the method: (§3)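 Herbicidal response was scored visually after ten greenhouse days, comparing treated pots with untreated ones on a 0–100 control scale. Preemergence application was a directed soil spray; postemergence plants were treated at 2 to 10 cm height.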

[4] = test system: goosegrass (Eleusine indica); experiment: Test A preemergence, goosegrass; details: 0 to 100 scale, 10 days
Source text: as §1, §2

[5] = test system: kochia (Bassia scoparia); experiment: Test A preemergence, kochia; details: 0 to 100 scale, 10 days
Summary of the method: as §3

[6] = test system: oat, wild (wild oat, Avena fatua); experiment: Test A preemergence, oat, wild; details: 0 to 100 scale, 10 days
Source text: as §1, §2

[7] = test system: palmer amaranth (pigweed, palmer, Amaranthus palmeri); experiment: Test A preemergence, palmer amaranth; details: 0 to 100 scale, 10 days
Source text: as §1, §2

[8] = test system: ragweed (common ragweed, Ambrosia artemisiifolia); experiment: Test A preemergence, ragweed; details: 0 to 100 scale, 10 days
Summary of the method: as §3

[9] = test system: ryegrass, Italian (Italian ryegrass, Lolium multiflorum); experiment: Test A preemergence, ryegrass, Italian; details: 0 to 100 scale, 10 days
Summary of the method: as §3

[10] = test system: soybean (Glycine max); experiment: Test A preemergence, soybean; details: 0 to 100 scale, 10 days
Source text: as §1, §2

[11] = test system: blackgrass (Alopecurus myosuroides); experiment: Test A postemergence, blackgrass; details: 10 days
Summary of the method: as §3

[12] = test system: corn (Zea mays); experiment: Test A postemergence, corn; details: 10 days
Summary of the method: as §3

[13] = test system: foxtail, giant (giant foxtail, Setaria faberi); experiment: Test A postemergence, foxtail, giant; details: 10 days
Summary of the method: as §3

[14] = test system: goosegrass (Eleusine indica); experiment: Test A postemergence, goosegrass; details: 10 days
Source text: as §1, §2

[15] = test system: kochia (Bassia scoparia); experiment: Test A postemergence, kochia; details: 10 days
Summary of the method: as §3

[16] = test system: oat, wild (wild oat, Avena fatua); experiment: Test A postemergence, oat, wild; details: 10 days
Source text: as §1, §2

[17] = test system: palmer amaranth (pigweed, palmer, Amaranthus palmeri); experiment: Test A postemergence, palmer amaranth; details: 10 days
Source text: as §1, §2

[18] = test system: ragweed (common ragweed, Ambrosia artemisiifolia); experiment: Test A postemergence, ragweed; details: 10 days
Summary of the method: as §3

[19] = test system: ryegrass, Italian (Italian ryegrass, Lolium multiflorum); experiment: Test A postemergence, ryegrass, Italian; details: 10 days
Summary of the method: as §3

[20] = test system: soybean (Glycine max); experiment: Test A postemergence, soybean; details: 10 days
Source text: as §1, §2

[21] = test system: wheat (Triticum aestivum); experiment: Test A postemergence, wheat; details: 10 days
Summary of the method: as §3

[22] = test system: galium (catchweed bedstraw, Galium aparine); experiment: Test A postemergence, galium; details: 10 days
Summary of the method: as §3

[23] = test system: horseweed (Erigeron canadensis); experiment: Test A postemergence, horseweed; details: 10 days
Source text: as §1, §2

[24] = test system: barnyardgrass (Echinochloa crus-galli); experiment: Test B flooded paddy test, barnyardgrass; details: 250 g ai/ha, Flood; visually evaluated after 10 to 14 days
Summary of the method: (§4)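 Compound added straight to paddy water of pots flooded to 3 cm, with 2-leaf-stage plants; water level held for the test. Injury scored visually against untreated controls after 10 to 14 greenhouse days, 0 (none) to 100 (complete control).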

[25] = test system: ducksalad (Heteranthera limosa); experiment: Test B flooded paddy test, ducksalad; details: 250 g ai/ha, Flood; visually evaluated after 10 to 14 days
Summary of the method: as §4

[26] = test system: rice (Oryza sativa); experiment: Test B flooded paddy test, rice; details: 250 g ai/ha, Flood; visually evaluated after 10 to 14 days
Summary of the method: as §4

[27] = test system: sedge, umbrella (small-flower umbrella sedge, Cyperus difformis); experiment: Test B flooded paddy test, sedge, umbrella; details: 250 g ai/ha, Flood; visually evaluated after 10 to 14 days
Summary of the method: as §4

[28] = test system: wheat (Triticum aestivum); experiment: Test A preemergence, wheat; details: 125 g ai/ha, 0 to 100 scale, 10 days
[29] = 31 g ai/ha, postemergence, 0 to 100 scale (0 no effect, 100 complete control)
[30] = Postemergence, 125 g ai/ha, 0 to 100 scale

For `Cc1ccc2cc3ccc(F)cc3c(-c3c(OCOC(=O)OC(C)C)c(C)nn(C)c3=O)c2c1` [Compound 17], the “Plant response rating, Blackgrass” value ([1]; 31 g ai/ha) was 0, the “Plant response rating, Blackgrass” value ([1]; 125 g ai/ha) was 20 and the “Plant response rating, Corn” value ([2]; 31 g ai/ha) was 0. For the same compound, the “Plant response rating, Corn” value ([2]; 125 g ai/ha) was 30, the “Plant response rating, Foxtail, Giant” value ([3]; 31 g ai/ha) was 100 and the “Plant response rating, Foxtail, Giant” value ([3]; 125 g ai/ha) was 100. For the same compound, the “Plant response rating, Goosegrass” value ([4]; 31 g ai/ha) was 50, the “Plant response rating, Goosegrass” value ([4]; 125 g ai/ha) was 60 and the “Plant response rating, Kochia” value ([5]; 31 g ai/ha) was 90. For the same compound, the “Plant response rating, Kochia” value ([5]; 125 g ai/ha) was 90, the “Plant response rating, Oat, Wild” value ([6]; 31 g ai/ha) was 0 and the “Plant response rating, Oat, Wild” value ([6]; 125 g ai/ha) was 0. The “Plant response rating, Pigweed, Palmer” value ([7]; 31 g ai/ha) was 100, the “Plant response rating, Pigweed, Palmer” value ([7]; 125 g ai/ha) was 100 and the “Plant response rating, Ragweed” value ([8]; 31 g ai/ha) was 100. For the same compound, the “Plant response rating, Ragweed” value ([8]; 125 g ai/ha) was 100, the “Plant response rating, Ryegrass, Italian” value ([9]; 31 g ai/ha) was 30 and the “Plant response rating, Ryegrass, Italian” value ([9]; 125 g ai/ha) was 80. The “Plant response rating, Soybean” value ([10]; 31 g ai/ha) was 0, the “Plant response rating, Soybean” value ([10]; 125 g ai/ha) was 0 and the “Plant response rating, Blackgrass” value [11, 29] was 0. The “Plant response rating, Blackgrass” value [11, 30] was 10, the “Plant response rating, Corn” value [12, 29] was 0 and the “Plant response rating, Corn” value [12, 30] was 30. For the same compound, the “Plant response rating, Foxtail, Giant” value [13, 29] was 100, the “Plant response rating, Foxtail, Giant” value [13, 30] was 100 and the “Plant response rating, Goosegrass” value [14, 29] was 30. For the same compound, the “Plant response rating, Goosegrass” value [14, 30] was 50, the “Plant response rating, Kochia” value [15, 29] was 100 and the “Plant response rating, Kochia” value [15, 30] was 100. The “Plant response rating, Oat, Wild” value [16, 29] was 10, the “Plant response rating, Oat, Wild” value [16, 30] was 30 and the “Plant response rating, Pigweed, Palmer” value [17, 29] was 90. For the same compound, the “Plant response rating, Pigweed, Palmer” value [17, 30] was 100, the “Plant response rating, Ragweed” value [18, 29] was 100 and the “Plant response rating, Ragweed” value [18, 30] was 100. For the same compound, the “Plant response rating, Ryegrass, Italian” value [19, 29] was 70, the “Plant response rating, Ryegrass, Italian” value [19, 30] was 100 and the “Plant response rating, Soybean” value [20, 29] was 60. The “Plant response rating, Soybean” value [20, 30] was 80, the “Plant response rating, Wheat” value [21, 29] was 0 and the “Plant response rating, Wheat” value [21, 30] was 0. The “Plant response rating, Galium” value [22, 29] was 100, the “Plant response rating, Galium” value [22, 30] was 100 and the “Plant response rating, Horseweed” value [23, 29] was 100. The “Plant response rating, Horseweed” value [23, 30] was 100, the “Plant response rating, Barnyardgrass (0 to 100 scale where 0 is no effect and 100 is complete control)” value [24] was 70 and the “Plant response rating, Ducksalad (0 to 100 scale where 0 is no effect and 100 is complete control)” value [25] was 85. The “Plant response rating, Rice (0 to 100 scale where 0 is no effect and 100 is complete control)” value [26] was 45, the “Plant response rating, Sedge, Umbrella (0 to 100 scale where 0 is no effect and 100 is complete control)” value [27] was 85 and the “Plant response rating, Wheat” value [28] was 0.
`Cc1ccc2cc3ccc(C)cc3c(-c3c(OCOC(=O)N(C)C)c(Cl)nn(C)c3=O)c2c1` [Compound 18] was tested, and the “Plant response rating, Blackgrass” value ([1]; 31 g ai/ha) was 0, the “Plant response rating, Blackgrass” value ([1]; 125 g ai/ha) was 0 and the “Plant response rating, Corn” value ([2]; 31 g ai/ha) was 0. The “Plant response rating, Corn” value ([2]; 125 g ai/ha) was 0, the “Plant response rating, Foxtail, Giant” value ([3]; 31 g ai/ha) was 0 and the “Plant response rating, Foxtail, Giant” value ([3]; 125 g ai/ha) was 0. For the same compound, the “Plant response rating, Goosegrass” value ([4]; 31 g ai/ha) was 0, the “Plant response rating, Goosegrass” value ([4]; 125 g ai/ha) was 0 and the “Plant response rating, Kochia” value ([5]; 31 g ai/ha) was 0. The “Plant response rating, Kochia” value ([5]; 125 g ai/ha) was 0, the “Plant response rating, Oat, Wild” value ([6]; 31 g ai/ha) was 0 and the “Plant response rating, Oat, Wild” value ([6]; 125 g ai/ha) was 0. The “Plant response rating, Pigweed, Palmer” value ([7]; 31 g ai/ha) was 0, the “Plant response rating, Pigweed, Palmer” value ([7]; 125 g ai/ha) was 40 and the “Plant response rating, Ragweed” value ([8]; 31 g ai/ha) was 0. The “Plant response rating, Ragweed” value ([8]; 125 g ai/ha) was 0, the “Plant response rating, Ryegrass, Italian” value ([9]; 31 g ai/ha) was 0 and the “Plant response rating, Ryegrass, Italian” value ([9]; 125 g ai/ha) was 0. For the same compound, the “Plant response rating, Soybean” value ([10]; 31 g ai/ha) was 0, the “Plant response rating, Soybean” value ([10]; 125 g ai/ha) was 0 and the “Plant response rating, Blackgrass” value [11, 29] was 0. For the same compound, the “Plant response rating, Blackgrass” value [11, 30] was 0, the “Plant response rating, Corn” value [12, 29] was 0 and the “Plant response rating, Corn” value [12, 30] was 0. For the same compound, the “Plant response rating, Foxtail, Giant” value [13, 29] was 0, the “Plant response rating, Foxtail, Giant” value [13, 30] was 0 and the “Plant response rating, Goosegrass” value [14, 29] was 0. For the same compound, the “Plant response rating, Goosegrass” value [14, 30] was 0, the “Plant response rating, Kochia” value [15, 29] was 40 and the “Plant response rating, Kochia” value [15, 30] was 70. For the same compound, the “Plant response rating, Oat, Wild” value [16, 29] was 0, the “Plant response rating, Oat, Wild” value [16, 30] was 0 and the “Plant response rating, Pigweed, Palmer” value [17, 29] was 30. For the same compound, the “Plant response rating, Pigweed, Palmer” value [17, 30] was 50, the “Plant response rating, Ragweed” value [18, 29] was 30 and the “Plant response rating, Ragweed” value [18, 30] was 100. For the same compound, the “Plant response rating, Ryegrass, Italian” value [19, 29] was 0, the “Plant response rating, Ryegrass, Italian” value [19, 30] was 0 and the “Plant response rating, Soybean” value [20, 29] was 0. The “Plant response rating, Soybean” value [20, 30] was 20, the “Plant response rating, Wheat” value [21, 29] was 0 and the “Plant response rating, Wheat” value [21, 30] was 0. The “Plant response rating, Galium” value [22, 29] was 0, the “Plant response rating, Galium” value [22, 30] was 30 and the “Plant response rating, Horseweed” value [23, 30] was 20. The “Plant response rating, Barnyardgrass (0 to 100 scale where 0 is no effect and 100 is complete control)” value [24] was 0, the “Plant response rating, Ducksalad (0 to 100 scale where 0 is no effect and 100 is complete control)” value [25] was 0 and the “Plant response rating, Rice (0 to 100 scale where 0 is no effect and 100 is complete control)” value [26] was 0. For the same compound, the “Plant response rating, Sedge, Umbrella (0 to 100 scale where 0 is no effect and 100 is complete control)” value [27] was 15 and the “Plant response rating, Wheat” value [28] was 0.
